How the values were obtained:
Assay type in all cases: in vivo
Phaedon cochleariae = test: Phaedon test (PHAECO spray treatment); conditions: application rate 500 g/ha, after 7 days, Chinese cabbage leaf discs
Summary of the method: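 Chinese cabbage (Brassica pekinensis) leaf discs sprayed with compound diluted in emulsifier-containing water to the desired concentration, then infested with mustard beetle larvae once dry. Mortality in % scored after 7 days or after the desired period (100% = all larvae dead, 0% = none dead).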

Digitaria sanguinalis = test: Herbicidal post-emergence action, DIGSA; conditions: 20 g/ha
Summary of the method: (§1)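 Weeds sown in sandy loam, grown in greenhouse 2–3 weeks and treated post-emergence at one-leaf stage (or BBCH 10–13, 5–10 cm) with WP/EC formulations sprayed at various dosages (600–800 l/ha water, 0.1–0.2% wetting agent). Visual rating after about 3 weeks as % activity versus untreated (100% = dead).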

Alopecurus myosuroides = test: Herbicidal post-emergence action, ALOMY; conditions: 20 g/ha
Summary of the method: as §1

Myzus persicae = Myzus persicae test; hydroponic treatment (MYZUPE Sys); conditions: 20 ppm, 6dat
Protocol: Myzus Persicae Test; Hydroponic Treatment (MYZUPE Sys)
To produce a suitable preparation of active compound, 1 part by weight of active compound is mixed with the stated amounts of solvent and emulsifier, and the concentrate is diluted with water to the desired concentration.
The active compound preparation is mixed with water. The stated concentration refers to the amount of active compound per volume unit of water (mg/l=ppm). The treated water is filled into vessels containing a pea plant (Pisum sativum), and the plant is the infested with the green peach aphid (Myzus persicae).
After the desired period of time, the kill in % is determined 100% means that all of the aphids have been killed; 0% means that none of the aphids have been killed.

Structure (SMILES): CCOC(=O)OC1=C(c2c(C)cc(I)cc2CC)C(=O)C2(CCC(OC)CC2)N1 (mixture of isomers) [I-b-2]
- effect in % (beetle larvae killed) (Phaedon cochleariae): 83%
- % Activity DIGSA (Digitaria sanguinalis): 90%
- % Activity ALOMY (Alopecurus myosuroides): 90%
- % Activity MYZUPE sys (Myzus persicae): 99%

Reference: patent US9204640B2, “2-acyloxy-pyrrolin-4-ones” (BAYER INTELLECTUAL PROPERTY GMBH, priority 2011, dated 2015)
